Results on 5 compounds are retold here after article PMC6271036, “Antimalarial Evaluation of the Chemical Constituents of Hairy Root Culture of Bixa orellana L” (Molecules, 2014).

Assay [1] has as its system malaria strains 3D7 and K1. Briefly: in vitro anti-plasmodium activity, strain not told apart. It counts as cell-based, Plasmodium falciparum. As to the method: (§1) The crude extract from culture medium and roots (compound 17), a combination of MeJA derivatives (compound 16), and its individual isolated components were tested in vitro for anti-plasmodium activity against malaria strains 3D7 and K1, as described in previously developed assays. Pure compounds were prepared as 10 mM or 2 mM stock solutions in DMSO.
Parasites were grown in Petri dishes in the presence of fresh group O-positive erythrocytes (hematocrit 4%–6%) in RPMI 1640 (pH 7.3) supplemented with 0.5% AlbuMAX II, 25 mM HEPES, 25 mM NaHCO3, 100 μg/mL hypoxanthine, and 5 μg/mL gentamycin. Cultures were incubated at 37 °C with 5% O2 and 5% CO2. Compounds were prepared as 10 mM stock solutions in DMSO (except compound 18) to measure EC50. The stock solutions were plated in 384-well plates, serially diluted (1:3) in DMSO. Compounds were then transferred to a 384-well assay plate containing 20 μL of RPMI 1640 with 5 μg/mL gentamycin by using a 384-head pin tool. Twenty μL of a synchronized culture suspension (1% rings, 4% hematocrit) was added to each well (final hematocrit and parasitemia, of 2% and 1%, respectively). The final DMSO concentration was 0.65%. Assay plates were incubated for 72 h and parasitemia was measured by using a previously described DNA stain-based assay. The MAR3D7 growth inhibition assay was used for the chloroquine-sensitive 3D7 strain of P. falciparum, and quantified growth by using DNA dyes. The experiment required a total of 96 h, including a 72 h incubation with test compounds. Positive controls were chloroquine and mefloquine. The MARK1 growth inhibition assay was used for the K1 strain of P. falciparum, known to be resistant to both chloroquine and pyrimethamine due to expression of the chloroquine resistance transporter and upregulation of the multi-drug resistance efflux pump. Growth was quantitated by using DNA dyes. The experiment required a total of 96 h, including a 72 h incubation with test compounds. Positive controls were chloroquine and mefloquine.

Assay [2] has as its system W2 strain of P. falciparum. Details: method as in earlier work. The note with it: 15 mg/Kg, mice; cited from earlier work.
The subject of assay [3] is K1 strain of P. falciparum. Briefly: MARK1 growth inhibition assay (DNA dye). The format is cell-based, Plasmodium falciparum. The note with it: 72 h incubation. Here is the method:
as §1
(§2) Parasites were grown in Petri dishes in the presence of fresh group O-positive erythrocytes (hematocrit 4%–6%) in RPMI 1640 (pH 7.3) supplemented with 0.5% AlbuMAX II, 25 mM HEPES, 25 mM NaHCO3, 100 μg/mL hypoxanthine, and 5 μg/mL gentamycin. Cultures were incubated at 37 °C with 5% O2 and 5% CO2. Compounds were prepared as 10 mM stock solutions in DMSO (except compound 18) to measure EC50. The stock solutions were plated in 384-well plates, serially diluted (1:3) in DMSO. Compounds were then transferred to a 384-well assay plate containing 20 μL of RPMI 1640 with 5 μg/mL gentamycin by using a 384-head pin tool. […] Assay plates were incubated for 72 h and parasitemia was measured by using a previously described DNA stain-based assay. The MAR3D7 growth inhibition assay was used for the chloroquine-sensitive 3D7 strain of P. falciparum, and quantified growth by using DNA dyes. […] Growth was quantitated by using DNA dyes. […]

Assay [4] deals with chloroquine-sensitive 3D7 strain of P. falciparum. Briefly: MAR3D7 growth inhibition assay (DNA dye). It counts as cell-based, Plasmodium falciparum. The note with it: 72 h incubation. Here is the method:
as §1, §2

“Also recorded” adds a separate entry of the source.

Consider `C[C@H]1CCC[C@@]23CC4C(C[C@]12C)C4(C)C3` [Compound 1, (2aS,6S,6aR)-1,6,6a-trimethyldecahydro-1,2a-methanocyclopropa[b]naphthalene], for which, in assay [1], the “antimalarial activity (in words)” value was “promising antimalarial activity”.
On the same count and under the same terms, with `CC(C)=CCC/C(C)=C/CC/C(C)=C/CC[C@]1(C)CCc2cc(O)cc(C)c2O1` [Compound 3, δ-tocotrienol] the entry was “promising antimalarial activity”.
For the compound `CC[C@H](CC[C@@H](C)[C@H]1CC[C@H]2[C@@H]3CC=C4C[C@@H](O)CC[C@]4(C)[C@H]3CC[C@]12C)C(C)C` [Compound 6, β-sitosterol], the “in vivo antimalarial activity” value in assay [2] is “active”.
Take `C[C@@H]1CC[C@]2(C(=O)O)CC[C@]3(C)C(=CC[C@@H]4[C@@]5(C)C[C@@H](O)[C@H](O)C(C)(C)[C@@H]5CC[C@]43C)[C@@H]2[C@]1(C)O` [tormentic acid, reference compound]: in assay [2], the “in vivo antimalarial activity” value is “active”.
Usually EC50 stands for the concentration giving half of the maximal effect. “(3S,9S,10S,13R,17R)-17-((2R,5S,E)-5-ethyl-6-methylhept-3-en-2-yl)-9,10,13-trimethyl-2,3,4,7,8,9,10,11,12,13,14,15,16,17-tetradecahydro-1H-cyclopenta[a]phenanthren-3-ol [Compound 5]”: the EC50 amounted to 5 µM in assay [3] and 3000 nM in assay [4]. In addition, the “antimalarial activity (in words)” value in assay [1] is listed as “promising antimalarial activity; also recorded: most potent compound lead”.
